# Results taken from patent US5292498A, “Method of treating lung disease with uridine triphosphates” (The University of North Carolina At Chapel Hill, priority 1991, dated 1994).
# Legend:
# [1] = tested on: normal human nasal epithelial cells; assay: Intracellular calcium [Ca^2+ ]i in single normal human nasal epithelial cells (Fura-2); type: cell-based
# Method: (§1) Freshly excised human nasal epithelium from normal or cystic fibrosis subjects was grown in primary culture in F-12, hormone-supplemented medium in accordance with known procedures. See R. Wu et al., Am. Rev. Respir. Dis. 132, 311-320 (1985). For [Ca^2+ ]i measurements, cultures were grown on non-fluorescent vitrogen substrates on glass coverslips. Cultures for electrophysiologic studies were grown to confluence on permeable collagen matrix supports (CMS), allowing addition of agonists to the basolateral or apical surface of the epithelial sheet.
# (§2) Primary human nasal epithelial cells grown to confluence on vitrogen coated coverslips were loaded with a final concentration of 3 μM Fura-2/AM at 37° C. for 30 minutes. The cells were then washed in NaCl Ringer and mounted in a chamber for measurements of fluorescence. To reduce the rate of leakage of Fura-2 from the cell into the extracellular space and avoid time-dependent compartmentalization of the probe, all measurements of [Ca^2+ ]i were performed at 25° C. At this temperature,no vesicular bright spots indicative of compartmentalization of the probe were observed.
# Measurements of [Ca^2+ ]i in single human nasal epithelial cells were obtained with a modular microspectrofluorimeter (SPEX Industries, Inc., Edison, N.J.) attached to a Zeiss Axiovert IM 35 microscope. The system was equipped with a xenon lamp, beam splitter, two monochromators and a rotating chopper mirror that permitted excitation of cell fluorescence at alternating wavelengths of 340 and 380 nm (emission ≥450 nm). The fluorescent signal from a single cell was measured with a photometer equipped with a pinhole (spot diameter of 3-5 μm) that excluded signals from adjacent cells.
# After agonist was added, the fluorescent signal was quenched by a NaCl ringer solution containing 1.5×10^-4 M digitonin and 10^-3 M MnCl2. The remaining signal at each excitation wavelength, equivalent to the background fluorescence in non loaded cells, was subtracted from data from Fura-2/AM loaded cells before the ratio (340 nm/380 nm) was taken. The 340 nm/380 nm ratio was converted to an actual [Ca^2+ ]i measurement by using the external calibration standards and the formula derived by G. Grynkiewicz et al., J. Biol. Chem. 260, 3440-3450 (1985), used with dual wavelength measurements: [Ca^2+ ]i =K [(Rx --Ro)/(Rs --Rx)], with Ro and Rs representing the ratios at 0 Ca^2+ and saturating Ca^2+, respectively. Rx represents the experimental ratio.
# To investigate whether changes in [Ca^2+ ]i might be related to regulation of ion transport, receptor characterization was performed by measuring changes in [Ca^2+ ]i in response to a number of nucleotide drugs. Concentration-effect curves for agonists active at P2x, P2y subtype or UTP sensitive receptors and other purine or pyrimidine receptor agonists were generated, measuring mean change in [Ca^2+ ]i in response to agonist concentration. Data are shown in FIG. 3, which gives log concentration-effect relationships of purinergic and pyrimidinergic compounds on [Ca^2+ ]i (mean change in [Ca^2+ ]i over basal levels).
# [2] = tested on: CF human nasal epithelium; assay: Bioelectric studies (Isc) of cystic fibrosis (CF) human nasal epithelium; type: cell-based; settings: for Isc response tracing: 10^-4 M, amiloride-pretreated (10^-4 M)
# Method: as §1
# Confluent monolayers of primary human nasal epithelium were mounted in modified Ussing chambers in accordance with known procedures. See, e.g., R. Boucher et al., J. Physiol. (Lond.) 405, 77-103 (1988); M. Knowles et al., Science 221, 1067-1070 (1983). The studies described below were performed under short circuit current conditions at 37° C., and in some studies, amiloride was added to the apical bath (10^-4 M) to block transepithelial sodium transport. Changes in transepithelial potential difference (Vt), resistance (Rt) and short circuit current (Isc) were measured in response to addition of various nucleotides. Each cultured preparation was exposed to only one concentration of an agonist on either the basolateral or apical surface to avoid the tachyphylaxis observed in preliminary cumulative dose response studies. To construct concentration-effect relationships of responses to nucleotides, it was assumed that the same maximum response to an agonist could be induced from each tissue culture preparation from the same individual.
# The purinergic receptor subtype(s) linked to regulation of ion transport of human nasal epithelium were characterized by obtaining concentration-effect relationships for a variety of purine and pyrimidine agonists in preparations derived from normal and CF patients. We characterized receptor subtype(s) on the […] surface by measuring nucleotide effect on basal Na^+ transport rates. Because therapies designed to induce Cl^- secretion might best be delivered by the aerosol route, receptor subtype characterization on the apical barrier was performed in the presence of amiloride. The effect of extracellular nucleotides on ion transport is reported as the percent change in Isc from control values when applied to the basolateral or apical surface of the culture. Basal pre-agonist currents were similar for tissues in each concentration group.
# Availability of Cystic Fibrosis (CF) tissues is limited, and our investigation of effects of nucleotides was restricted to examining regulation of Cl^- secretion rates and [Ca^2+ ]i levels by ATP and UTP.
# [3] = tested on: CF nasal epithelial cells; assay: Intracellular calcium [Ca^2+ ]i in single CF nasal epithelial cells (Fura-2); type: cell-based, human; settings: FIG. 6
# Method: as §1, with “132, 311-320 (1985).” left out
# as §2, with “C.” for “C. At this temperature,no vesicular bright spots indicative of compartmentalization of the probe were observed.”
# Measurements of [Ca^2+ ]i in single human nasal epithelial cells were obtained with a modular microspectrofluorimeter (SPEX Industries, Inc., Edison, N.J.) attached to a Zeiss Axiovert IM 35 microscope. […] The fluorescent signal from a single cell was measured with a photometer equipped with a pinhole (spot diameter of 3-5 μm) that excluded signals from adjacent cells. […]
smiles,measurement,setting,value
"Nc1ncnc2c1ncn2[C@@H]1O[C@H](COP(=O)(O)OP(=O)(O)OP(=O)(O)O)[C@@H](O)[C@H]1O [ATP, adenosine triphosphate]",[Ca^2+ ]i response in Ca^2+ -free medium,[1]; Ca^2+ -free medium,initial sharp increase in [Ca^2+ ]i
same,time for [Ca^2+ ]i to return to baseline,[1]; Ca^2+ -free medium,two
same,effectiveness for raising [Ca^2+ ]i,"[1]; concentration-effect curves, FIG. 3",most effective agonists
same,[Ca^2+ ]i response,"[1]; extracellular application, Ca^2+ -containing solution",immediate increase in [Ca^2+ ]i levels
same,plateau phase on return to Ca^2+ -containing solution,[1]; return of cells to Ca^2+ -containing solution,restoration of the plateau phase
same,Isc response tracing,"[2]; apical surface, FIG. 4A",Cl^- secretion in response to ATP
same,Isc response tracing,"[2]; apical surface, FIG. 4B",opposite polarity
same,Emax,"[2]; Homo sapiens, read-out: maximum mean % change in Isc",14 ± 3%
same,change in Isc over basal levels,"[2]; apical surface, amiloride-pretreated CF tissues",Most tissues exhibited an increase in Isc over basal levels
same,pattern of Isc response,"[2]; apical, amiloride-pretreated CF tissues",two distinct patterns of response
same,CF tissues responding with a change to opposite polarity of Isc,"[2]; apical, amiloride-pretreated CF tissues, FIG. 4B",approximately 30%
same,Cl^- secretion (amiloride-resistant Isc),"[2]; basolateral addition, CF tissues",Only small changes in Cl^- secretion
same,[Ca^2+ ]i response in CF tissues,[3],Increases in [Ca^2+ ]i
